Experimental data published in ChEMBL document CHEMBL1201862, “PubChem BioAssay data set” (2004).
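Values below derive from 48-hour exposures of cells grown in 96-well plates, with endpoints linearly interpolated between the two concentrations bracketing the appropriate inhibition level. GI50 marks 50% less growth.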 Active and inactive are the calls of the source. No stated cut-off is given here; in the data, active = GI50 up to about 1.1 µM and inactive = higher.

Tests used:
Assay in all cases: NCI anticancer screen, dose series, 48 h
786-0 = test system: 786-0
A498 = test system: A498
A549 = test system: A549
ACHN = test system: ACHN
BT-549 = test system: BT-549
CAKI-1 = test system: CAKI-1
CCRF-CEM = test system: CCRF-CEM
COLO 205 = test system: COLO 205
DU-145 = test system: DU-145
EKVX = test system: EKVX
HCC 2998 = test system: HCC 2998
HCT-116 = test system: HCT-116
HCT-15 = test system: HCT-15
HL-60 = test system: HL-60
HOP-62 = test system: HOP-62
HOP-92 = test system: HOP-92
HT-29 = test system: HT-29
Hs-578T = test system: Hs-578T
IGROV-1 = test system: IGROV-1
K562 = test system: K562
KM12 = test system: KM12
LOX IMVI = test system: LOX IMVI
M14 = test system: M14
MCF7 = test system: MCF7
MDA-MB-231 = test system: MDA-MB-231
MDA-MB-435 = test system: MDA-MB-435
MDA-N = test system: MDA-N
MOLT-4 = test system: MOLT-4
Malme-3M = test system: Malme-3M
NCI-H226 = test system: NCI-H226
NCI-H23 = test system: NCI-H23
NCI-H460 = test system: NCI-H460
NCI-H522 = test system: NCI-H522
NCI/ADR-RES = test system: NCI/ADR-RES
OVCAR-3 = test system: OVCAR-3
OVCAR-4 = test system: OVCAR-4
OVCAR-5 = test system: OVCAR-5
OVCAR-8 = test system: OVCAR-8
PC-3 = test system: PC-3
RXF 393 = test system: RXF 393
SF-268 = test system: SF-268
SF-295 = test system: SF-295
SF-539 = test system: SF-539
SK-MEL-28 = test system: SK-MEL-28
SK-MEL-2 = test system: SK-MEL-2
SK-MEL-5 = test system: SK-MEL-5
SK-OV-3 = test system: SK-OV-3
SN12C = test system: SN12C
SNB-19 = test system: SNB-19
SNB-75 = test system: SNB-75
SR = test system: SR
SW-620 = test system: SW-620
T47D = test system: T47D
TK-10 = test system: TK-10
U-251 = test system: U-251
UACC-257 = test system: UACC-257
UACC-62 = test system: UACC-62
UO-31 = test system: UO-31

CCO/N=C(/CC)c1ccc(Br)s1
GI50 (786-0): > 100 µM (inactive) | GI50 (A498): > 100 µM (inactive) | GI50 (A549): > 100 µM (inactive) | GI50 (ACHN): > 100 µM (inactive) | GI50 (BT-549): > 100 µM (inactive) | GI50 (CAKI-1): > 100 µM (inactive) | GI50 (CCRF-CEM): > 100 µM (inactive) | GI50 (COLO 205): > 100 µM (inactive) | GI50 (DU-145): > 100 µM (inactive) | GI50 (EKVX): > 100 µM (inactive) | GI50 (HCC 2998): > 100 µM (inactive) | GI50 (HCT-116): > 100 µM (inactive) | GI50 (HCT-15): > 100 µM | GI50 (HL-60): 33 µM (inactive) | GI50 (HOP-62): > 100 µM (inactive) | GI50 (HOP-92): > 100 µM (inactive) | GI50 (HT-29): > 100 µM (inactive) | GI50 (Hs-578T): > 100 µM (inactive) | GI50 (IGROV-1): > 100 µM (inactive) | GI50 (K562): > 100 µM (inactive) | GI50 (KM12): > 100 µM (inactive) | GI50 (LOX IMVI): 80.5 µM (inactive) | GI50 (M14): > 100 µM (inactive) | GI50 (MCF7): > 100 µM (inactive) | GI50 (MDA-MB-231): > 100 µM (inactive) | GI50 (MDA-MB-435): > 100 µM (inactive) | GI50 (MDA-N): > 100 µM (inactive) | GI50 (MOLT-4): 53.5 µM (inactive) | GI50 (Malme-3M): > 100 µM (inactive) | GI50 (NCI-H226): > 100 µM (inactive) | GI50 (NCI-H23): > 100 µM (inactive) | GI50 (NCI-H460): > 100 µM (inactive) | GI50 (NCI-H522): > 100 µM (inactive) | GI50 (NCI/ADR-RES): > 100 µM (inactive) | GI50 (OVCAR-3): > 100 µM (inactive) | GI50 (OVCAR-4): > 100 µM (inactive) | GI50 (OVCAR-5): > 100 µM (inactive) | GI50 (OVCAR-8): > 100 µM (inactive) | GI50 (PC-3): > 100 µM (inactive) | GI50 (RXF 393): > 100 µM (inactive) | GI50 (SF-268): > 100 µM (inactive) | GI50 (SF-295): > 100 µM (inactive) | GI50 (SF-539): > 100 µM (inactive) | GI50 (SK-MEL-28): > 100 µM (inactive) | GI50 (SK-MEL-2): > 100 µM (inactive) | GI50 (SK-MEL-5): > 100 µM (inactive) | GI50 (SK-OV-3): > 100 µM (inactive) | GI50 (SN12C): > 100 µM (inactive) | GI50 (SNB-19): > 100 µM (inactive) | GI50 (SNB-75): > 100 µM (inactive) | GI50 (SR): 52.2 µM (inactive) | GI50 (SW-620): > 100 µM (inactive) | GI50 (T47D): > 100 µM (inactive) | GI50 (TK-10): > 100 µM (inactive) | GI50 (U-251): > 100 µM (inactive) | GI50 (UACC-257): > 100 µM (inactive) | GI50 (UACC-62): > 100 µM (inactive) | GI50 (UO-31): > 100 µM (inactive)
